Measured values reported in patent publication US20250145637A1, “SULFONAMIDE DERIVATIVE, PREPARATION METHOD THEREFOR AND MEDICAL USE THEREOF” (Jiangsu Hengrui Pharmaceuticals Co. Ltd., priority 2021, published 2025).

What was measured:
human KAT6A = human KAT6A (Homo sapiens (Human), UniProt Q92794); experiment: KAT6 enzyme activity assay (AlphaScreen method), KAT6A; type: biochemical; details: inhibition of the enzyme human KAT6A
Text: Test Example 1: KAT6 Enzyme Activity Assay (AlphaScreen Method)
I. Reagents and instrument • 1. KAT6A (customized by Chempartner) • 2. Ovalbumin (Sigma-Aldrich, A5378-5G) • 3. 2 M Tris-HCl solution, pH 7.8, sterile (Sangon, B548140-0500) • 4. 5 M NaCl solution (Sangon, B548121-0100) • 5. EDTA (0.5 M), pH 8.0, RNase-free (Thermofisher, AM9260G) • 6. Tween-20 (Sangon, A100777-0500) • 7. DTT, 1 M (Invitrogen, P2325) • 8. Acetyl coenzyme A (Ac-CoA, CAYMAN, Cat. No. 16160) • 9. Recombinant histone H3.1 biotinylated (human) (Active Motif 31696) • 10. 384-well plate, light gray (Perkin Elmer, Cat. No. 6005350) • 11. Anacardic acid (MCE, Cat. No. HY—N2020) • 12. AlphaScreen streptavidin donor beads, 5 mg (PerkinElmer, 6760002) • 13. AlphaScreen protein A acceptor beads, 5 mg (PerkinElmer, 6760137M) • 14. Acetylated-lysine antibody #9441 (CST 9441S) • 15. PHERA star microplate reader (BMG labtech) • II. Experimental method
a. 1× assay buffer: 100 mM Tris-HCl, pH 7.8; 15 mM NaCl; 1 mM EDTA; 0.01% tween-20; 1 mM DTT; 0.01% m/v ovalbumin.
b. KAT enzyme solution: 1.25 nM (final concentration), prepared in 1× assay buffer.
c. Mixed substrate of Ac-CoA and H3: a mixed substrate of 1000 nM (final concentration) Ac-CoA and 55 nM (final concentration) H3, prepared in 1× assay buffer.
d. Compounds: initial concentration of 100 μM, 3-fold dilution, 10 gradient concentrations. All compound concentrations were diluted 83-fold with 1× assay buffer for later use.
e. Assay reagent: 8 ng/μL (final concentration) AlphaScreen protein A acceptor beads, 8 ng/μL AlphaScreen streptavidin donor beads, 1:1500 diluted acetylated-lysine antibody, and 100 μM anacardic acid; prepared in 1× assay buffer.
(§1) 2. Experimental Procedure
a. The prepared enzyme solution was added to a 384-well plate at 3 μL/well, and 3 μL of 1× assay buffer was added to each well in columns 23 and 24 (Min).
b. 3 μL of compound solution was added to each well, and 3 μL of buffer was added to each Min well; 3 μL of DMSO solution was added to each well in columns 1 and 2 (Max) as controls. The plate was centrifuged, shaken for 2 min, and incubated at room temperature for 15 min.
c. The mixed substrate of Ac-CoA and H3 was added at 6 μL/well, and the plate was centrifuged, shaken for 2 min, and incubated at room temperature for 20 min.
d. The assay reagent was added at 6 μL/well, and the plate was centrifuged, shaken for 2 min, and incubated in the dark at room temperature for 120 min.
e. Plate reading was performed on the microplate reader, and AlphaScreen counts were recorded.
f. Plotting was performed using the Graphpad software, and the IC50 values of the compounds were calculated.

[1] = system: H3K23 acetylation in U-2 OS cells; experiment: U2OS cell H3K23 acetylation IF assay (immunofluorescence); type: cell-based; details: Homo sapiens; for IC50: 24 h incubation, read-out: H3K23 ac/IC50; for Emax: inhibition of H3K23 acetylation, 24 h, read-out: Maximum inhibition rate/Imax %
Procedure: Test Example 3: U2OS Cell H3K23 Acetylation IF Assay (Immunofluorescence)
I. Reagents and Instruments
• 1. U-2 OS (ATCC HTB-96) • 2. Recombinant anti-histone H3 (acetyl K23) antibody (Abcam, ab177275) • 3. Goat anti-rabbit IgG (H+L), Superclonal™ recombinant secondary antibody, Alexa Fluor 488 (Thermofisher, A27034) • 4. Hoechst 33342 (Sigma-Aldrich, B2261-25MG) • 5. Assay plate, 96-well, black with clear bottom (Corning, 3603) • 6. Bovine serum albumin (BSA) (Sangon Biotech, A500023-0100) • 7. Methanol (GENERAL-REAGENT, G75851D) • 8. Tween-20 (Sangon, A100777-0500) • 9. Triton X-100 (Solarbio, T8200) • 10. PBS (Shanghai BasalMedia Technologies Co., Ltd., B320KJ) • 11. 20×PBS buffer (Sangon Biotech, B548117-0500) • 12. McCoy's 5A medium (Gibco, 16600082) • 13. 0.25% trypsin-EDTA (1×) (Gibco, 25200-072) • 14. Pen strep (Gibco, 15140-122) • 15. DPBS (1×) (Gibco, 14190-144) • 16. FBS (Gibco, 10091148) • 17. Automatic cell counter (Countstar, IC1000) • 18. Thermostatic incubator (Thermo, 1160) • 19. ImageXpress® Micro Confocal (Molecular Device)
a. Blocking buffer: PBS (Shanghai BasalMedia)+BSA (final concentration of 1%)+Triton X-100 (final concentration of 0.5%).
b. Wash buffer: PBS (20×PBS was diluted to 1×PBS)+Tween-20 (final concentration of 0.1%).
c. Primary antibody solution: Recombinant anti-histone H3 (acetyl K23) antibody was diluted in blocking buffer at a ratio of 1:1000.
d. Secondary antibody solutions: Goat anti-rabbit IgG (H+L), Superclonal™ recombinant secondary antibody, Alexa Fluor 488 was diluted in blocking buffer at a ratio of 1:1000, and Hoechst 33342 was diluted in blocking buffer at a ratio of 1:5000.
e. Compounds: initial concentration of 100 μM, 3-fold dilution, 9 gradient concentrations. All compound concentrations were diluted 500-fold with McCoy's 5A medium for later use.
as §1
2.1. Cell Treatment (Day One)
a. The state of U-2 OS cells was observed under a microscope to make sure that the cell confluence was about 90%.
b. The cell supernatant was discarded. The cells were rinsed with DPBS once, and the DPBS was removed. The cells were digested with a proper amount of trypsin and left to stand at room temperature or 37° C. for 5 min.
c. The digestion was stopped with an equal volume of medium containing 10% FBS, and the cell suspension was collected and centrifuged at 300 g for 3 min. The cells were suspended in a proper amount of fresh medium.
d. The resulting cell suspension was collected and cell counting was performed.
e. The cell suspension was diluted and plated at 9000 cells/50 μL/well.
f. The wells on the periphery were blocked with 100 μL of PBS.
g. The cell culture plates were incubated overnight in a 37° C., 5% carbon dioxide incubator.
2.2. Compound Addition (Day Two)
a. 50 μL of diluted compound was added to the cell supernatant (50 μL/well) in each cell plate.
b. After the addition, the cell plates were incubated in a 37° C., 5% carbon dioxide incubator for 24 h.
2.3. Immunofluorescence Staining and Measurement (Day Three to Day Four)
a. After the 24-hour incubation, the cell plates were removed from the incubator. The medium was discarded, and plates were fixed with pre-cooled methanol at room temperature for 10 min.
b. The fixation buffer was discarded, and the plates were quickly washed with wash buffer 3 times and then slowly washed 3 times (5 min/wash).
c. The wash buffer was discarded, and blocking buffer was added. The plates were incubated at room temperature for 60 min.
d. The blocking buffer was discarded, and the prepared primary antibody solution was added. The plates were incubated overnight at 4° C.
e. The primary antibody solution was discarded, and the prepared secondary antibody solution was added. The plates were incubated at room temperature for 60 min.
f. The secondary antibody solution was discarded, and the plates were quickly washed with wash buffer 3 times and then slowly washed 5 times (5 min/wash).
g. The plates were tested on ImageXpress® Micro Confocal.
h. […]

Chain of human KAT6A (Q92794 whole entry): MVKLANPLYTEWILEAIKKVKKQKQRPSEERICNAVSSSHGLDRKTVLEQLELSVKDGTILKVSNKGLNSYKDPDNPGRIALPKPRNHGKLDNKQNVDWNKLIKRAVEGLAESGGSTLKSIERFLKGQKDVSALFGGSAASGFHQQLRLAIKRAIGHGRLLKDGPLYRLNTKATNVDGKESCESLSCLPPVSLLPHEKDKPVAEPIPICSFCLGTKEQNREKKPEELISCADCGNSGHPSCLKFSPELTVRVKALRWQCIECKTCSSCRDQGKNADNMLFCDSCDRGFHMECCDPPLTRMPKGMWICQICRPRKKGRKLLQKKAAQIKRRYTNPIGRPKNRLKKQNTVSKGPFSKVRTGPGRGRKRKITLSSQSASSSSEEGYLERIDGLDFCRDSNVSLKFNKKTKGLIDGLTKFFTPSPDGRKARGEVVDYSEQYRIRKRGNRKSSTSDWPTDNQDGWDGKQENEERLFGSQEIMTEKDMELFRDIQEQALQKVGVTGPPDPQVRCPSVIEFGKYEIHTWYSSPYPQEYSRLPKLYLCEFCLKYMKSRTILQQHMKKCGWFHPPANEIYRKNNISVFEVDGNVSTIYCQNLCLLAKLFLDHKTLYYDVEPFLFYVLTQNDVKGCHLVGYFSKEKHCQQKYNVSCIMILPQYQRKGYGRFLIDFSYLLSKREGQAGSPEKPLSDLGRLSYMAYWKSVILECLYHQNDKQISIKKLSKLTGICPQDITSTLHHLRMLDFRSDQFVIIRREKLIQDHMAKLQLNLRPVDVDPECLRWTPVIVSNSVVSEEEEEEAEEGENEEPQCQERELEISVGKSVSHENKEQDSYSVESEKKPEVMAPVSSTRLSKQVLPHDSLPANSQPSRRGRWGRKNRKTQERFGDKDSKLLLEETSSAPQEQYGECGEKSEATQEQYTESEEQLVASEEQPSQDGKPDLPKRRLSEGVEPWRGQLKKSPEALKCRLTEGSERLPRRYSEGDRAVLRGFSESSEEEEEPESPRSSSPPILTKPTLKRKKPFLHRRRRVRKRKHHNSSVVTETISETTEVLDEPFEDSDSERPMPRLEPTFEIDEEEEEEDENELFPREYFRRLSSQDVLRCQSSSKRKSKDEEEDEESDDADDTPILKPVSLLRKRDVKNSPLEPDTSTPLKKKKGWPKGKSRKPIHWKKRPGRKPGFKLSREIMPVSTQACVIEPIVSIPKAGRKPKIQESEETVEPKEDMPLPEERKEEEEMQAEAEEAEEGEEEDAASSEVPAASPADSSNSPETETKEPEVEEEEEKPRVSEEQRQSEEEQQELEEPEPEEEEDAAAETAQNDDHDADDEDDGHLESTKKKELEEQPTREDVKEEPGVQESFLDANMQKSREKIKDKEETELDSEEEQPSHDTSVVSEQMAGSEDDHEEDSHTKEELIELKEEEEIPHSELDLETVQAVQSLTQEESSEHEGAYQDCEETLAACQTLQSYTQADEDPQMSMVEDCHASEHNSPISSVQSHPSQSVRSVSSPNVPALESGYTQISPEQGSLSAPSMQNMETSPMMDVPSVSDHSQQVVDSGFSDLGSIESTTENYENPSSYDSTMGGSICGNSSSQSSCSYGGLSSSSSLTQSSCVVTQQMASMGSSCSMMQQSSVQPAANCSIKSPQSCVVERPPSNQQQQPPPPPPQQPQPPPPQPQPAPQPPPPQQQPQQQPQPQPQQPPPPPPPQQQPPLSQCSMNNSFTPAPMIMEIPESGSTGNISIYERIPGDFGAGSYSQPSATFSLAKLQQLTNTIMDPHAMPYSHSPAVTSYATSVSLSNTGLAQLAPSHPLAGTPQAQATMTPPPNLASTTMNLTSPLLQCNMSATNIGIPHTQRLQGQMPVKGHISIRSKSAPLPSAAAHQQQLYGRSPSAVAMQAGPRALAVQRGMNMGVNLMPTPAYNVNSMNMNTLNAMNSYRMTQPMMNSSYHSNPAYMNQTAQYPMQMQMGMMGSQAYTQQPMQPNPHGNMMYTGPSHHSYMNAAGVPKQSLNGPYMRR

SMILES | IC50 (human KAT6A) [nM] | IC50 [1] [nM] | Emax [1] [%]
COc1ccccc1S(=O)(=O)Nc1noc2cc(Cn3cccn3)c3c(c12)OCCO3 [Compound 4, N-(5-((1H-pyrazol-1-yl)methyl)-2,3-dihydro-[1,4]dioxino[2′,3′:5,6]benzo[1,2-d]isoxazol-9-yl)-2-methoxybenzenesulfonamide] | 4.2 | 1.5 | 106
COc1cc(N(C)C)ccc1S(=O)(=O)Nc1noc2cc(Cn3cccn3)c3c(c12)OCCC3 [Compound 11, N-(5-((1H-pyrazol-1-yl)methyl)-3,4-dihydro-2H-chromeno[8,7-d]isoxazol-9-yl)-4-(dimethylamino)-2-methoxybenzenesulfonamide] | 1.6 | 2.1 | 103
O=S(=O)(Nc1noc2cc(Cn3cccn3)c3c(c12)OCCC3)c1cccc2c1OCC2 [Compound 12, N-(5-((1H-pyrazol-1-yl)methyl)-3,4-dihydro-2H-chromeno[8,7-d]isoxazol-9-yl)-2,3-dihydrobenzofuran-7-sulfonamide] | 12.5 |  | 
CCc1ccc(S(=O)(=O)Nc2noc3cc(Cn4cccn4)c4c(c23)OCCC4)c(OC)c1 [Compound 13, N-(5-((1H-pyrazol-1-yl)methyl)-3,4-dihydro-2H-chromeno[8,7-d]isoxazol-9-yl)-4-ethyl-2-methoxybenzenesulfonamide] | 0.3 |  | 
COc1cc2c(cc1S(=O)(=O)Nc1noc3cc(Cn4cccn4)c4c(c13)OCC4)CCC2 [Compound 15, N-(4-((1H-pyrazol-1-yl)methyl)-2,3-dihydrobenzofuro[7,6-d]isoxazol-8-yl)-6-methoxy-2,3-dihydro-1H-indene-5-sulfonamide] | 1.2 |  | 
CCOc1cc(C)ccc1S(=O)(=O)Nc1noc2cc(Cn3cccn3)c3c(c12)OCC3 [Compound 16, N-(4-((1H-pyrazol-1-yl)methyl)-2,3-dihydrobenzofuro[7,6-d]isoxazol-8-yl)-2-ethoxy-4-methylbenzenesulfonamide] | 1.9 |  | 
COc1cccc(OC)c1S(=O)(=O)Nc1noc2cc([C@H]3CCCO3)c3c(c12)OCC3 [Compound 26-1, (R)-2,6-dimethoxy-N-(4-(tetrahydrofuran-2-yl)-2,3-dihydrobenzofuro[7,6-d]isoxazol-8-yl)benzenesulfonamide] | 5.2 |  | 

More lines, main results first:

IC50 (human KAT6A) [nM] | IC50 [1] [nM] | SMILES | Emax [1] [%]
10.5 |  | COc1cccc(C)c1S(=O)(=O)Nc1noc2cc(Cn3cccn3)c3c(c12)OCC3 [Compound 17, N-(4-((1H-pyrazol-1-yl)methyl)-2,3-dihydrobenzofuro[7,6-d]isoxazol-8-yl)-2-methoxy-6-methylbenzenesulfonamide] | 
12.5 |  | COc1ccc(C)cc1S(=O)(=O)Nc1noc2cc(Cn3cccn3)c3c(c12)OCC3 [Compound 18, N-(4-((1H-pyrazol-1-yl)methyl)-2,3-dihydrobenzofuro[7,6-d]isoxazol-8-yl)-2-methoxy-5-methylbenzenesulfonamide] | 
2.7 |  | COc1cc2c(cc1S(=O)(=O)Nc1noc3cc(Cn4cccn4)c4c(c13)OCC4)OCC2 [Compound 19, N-(4-((1H-pyrazol-1-yl)methyl)-2,3-dihydrobenzofuro[7,6-d]isoxazol-8-yl)-5-methoxy-2,3-dihydrobenzofuran-6-sulfonamide] | 
4.7 | 2.9 | COc1cc(C)ccc1S(=O)(=O)Nc1noc2cc(Cn3cccn3)c3c(c12)OCC3 [Compound 22, N-(4-((1H-pyrazol-1-yl)methyl)-2,3-dihydrobenzofuro[7,6-d]isoxazol-8-yl)-2-methoxy-4-methylbenzenesulfonamide] | 105
12.2 |  | COc1cccc(OC)c1S(=O)(=O)Nc1noc2cc(C3CCCO3)c3c(c12)OCC3 (stereo not drawn) [Compound 26, 2,6-dimethoxy-N-(4-(tetrahydrofuran-2-yl)-2,3-dihydrobenzofuro[7,6-d]isoxazol-8-yl)benzenesulfonamide] | 
